Test results from ChEMBL document CHEMBL1201862, “PubChem BioAssay data set” (2004).
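Compound exposure: 48 hours, 5 concentrations, 96-well plates. GI50 marks 50% less growth.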 Activity calls are given as the source filed them. Rule as the data show it: active = GI50 up to about 1.1 µM and inactive = higher.

Experiments:
Experiment in all cases: NCI-60 cell line screen, 48 h
[1] = test system: U-251
[2] = test system: Malme-3M
[3] = test system: SW-620
[4] = test system: M14
[5] = test system: SF-295
[6] = test system: SK-OV-3
[7] = test system: HCC 2998
[8] = test system: NCI-H226
[9] = test system: HOP-62
[10] = test system: SNB-19
[11] = test system: SNB-75
[12] = test system: NCI/ADR-RES
[13] = test system: SK-MEL-28
[14] = test system: CCRF-CEM
[15] = test system: A549
[16] = test system: UACC-62
[17] = test system: RPMI-8226
[18] = test system: MOLT-4
[19] = test system: NCI-H522
[20] = test system: MCF7

Measured: GI50

O=C(O)c1ccccc1NC(c1ccccc1)c1ccc2cccnc2c1O (stereo not given)
inactive: [1] 4.08 µM | [2] 15.8 µM | [3] 5.4 µM | [4] 5.81 µM | [5] 4.37 µM | [6] 16.8 µM | [7] 12.3 µM | [8] 4.27 µM | [9] 7.67 µM | [10] 5.24 µM | [11] 29.3 µM | [12] 3.77 µM | [13] 6.41 µM | [14] 1.93 µM | [15] 5.56 µM | [16] 11.6 µM | [17] 3.04 µM | [18] 4.06 µM | [19] 3.97 µM | [20] 4.85 µM

C[C@@H](Cl)[C@H]1CCCN(Cc2ccc(Br)cc2)C1
inactive: [1] > 12.5 µM | [2] > 12.5 µM | [3] > 12.5 µM | [4] > 12.5 µM | [5] > 12.5 µM | [6] > 12.5 µM | [7] > 12.5 µM | [8] > 12.5 µM | [9] > 12.5 µM | [10] > 12.5 µM | [11] > 12.5 µM | [12] > 12.5 µM | [13] > 12.5 µM | [14] > 12.5 µM | [15] > 12.5 µM | [16] > 12.5 µM | [17] > 12.5 µM | [18] > 12.5 µM | [19] > 12.5 µM | [20] > 12.5 µM

O=[N+]([O-])c1ccc(CN(CCCl)OCCCl)cc1
inactive: [1] > 100 µM | [2] > 100 µM | [3] 91.2 µM | [4] > 100 µM | [5] > 100 µM | [6] > 100 µM | [7] 84.1 µM | [8] > 100 µM | [9] > 100 µM | [10] > 100 µM | [11] > 100 µM | [12] > 100 µM | [13] > 100 µM | [14] 35.5 µM | [15] 67.6 µM | [16] 55.8 µM | [17] 98.6 µM | [18] 20.9 µM | [19] 31.3 µM | [20] 83.4 µM

BrC1=C(Br)C2(SCCS2)[C@H]2C[C@@H]1c1ccccc12
inactive: [1] 37.8 µM | [2] 32.1 µM | [3] 35.3 µM | [4] > 79.8 µM | [5] > 100 µM | [6] > 46 µM | [7] 21.3 µM | [8] 64.1 µM | [9] > 100 µM | [10] > 100 µM | [11] 16.2 µM | [12] 61.5 µM | [13] 97.9 µM | [14] 14.6 µM | [15] > 54.1 µM | [16] 65.8 µM | [17] 13.9 µM | [18] 13.9 µM | [19] 13.2 µM | [20] 22.3 µM

O=C(O)c1cc(Cl)cc2c1NC1(N2)C(=O)Nc2ccccc21 (stereo not given)
inactive: [1] 42.5 µM | [2] 69.2 µM | [3] 73.6 µM | [4] > 100 µM | [5] > 100 µM | [6] > 100 µM | [7] > 100 µM | [8] > 100 µM | [9] > 100 µM | [10] > 100 µM | [11] 97.1 µM | [12] > 100 µM | [13] > 100 µM | [14] > 100 µM | [15] > 100 µM | [16] > 100 µM | [17] > 100 µM | [18] > 100 µM | [19] > 100 µM | [20] > 100 µM

Cc1cc2nc3[nH]nc(N)c3nc2cc1C
inactive: [1] > 100 µM | [2] > 100 µM | [3] > 100 µM | [4] > 100 µM | [5] > 100 µM | [6] > 100 µM | [7] > 100 µM | [8] 17.7 µM | [9] 70 µM | [10] > 100 µM | [11] 26.2 µM | [12] > 100 µM | [13] > 100 µM | [14] > 100 µM | [15] > 100 µM | [16] > 100 µM | [17] > 100 µM | [18] > 100 µM | [19] > 100 µM | [20] > 100 µM

CCN(CC)CCn1nc(N)c2nc3ccccc3nc21
inactive: [1] > 100 µM | [2] > 100 µM | [3] 93.5 µM | [4] > 100 µM | [5] > 100 µM | [6] > 100 µM | [7] > 100 µM | [8] > 100 µM | [9] > 100 µM | [10] > 100 µM | [11] 39.9 µM | [12] > 100 µM | [13] > 100 µM | [14] > 100 µM | [15] > 100 µM | [16] > 100 µM | [17] > 100 µM | [18] 63.7 µM | [19] 96.4 µM | [20] > 100 µM
